Like-named read-outs stand apart in the source and are kept apart here.

What is called EC50 is the concentration needed to bring the measured effect to its halfway point. The CC50 is the concentration at which the toxic effect on the cells reaches its halfway point. By melting point is commonly meant the temperature, or range, at which the solid turns liquid.

For series [1], the system named is PC3 prostate cancer cell line. The experiment in a line: qHTS cell viability screen (Cell Titer Glo), PC3. The format is cell-based. Conditions: for CC50: PC3 prostate, 72 hours, cell viability Cell Titer Glo, read-out: CC50 PC3.
The subject of series [2] is Acute T cell leukemia Jurkat e6-1 cells (JURKT). Description: Additional cancer cell line panel, JURKT. The format is cell-based. Conditions: confidence intervals in parentheses, NA: not active.
Series [3] relates to BJ cells, normal human foreskin fibroblast cell line. Description: BJ cell cytotoxicity counter screen. An excerpt:
(§1) Most analogs in the presented series are lipophilic while also containing a positively charged amine. Lipophilic basic amines can accumulate in cell membranes if their lipophilic atom groups form favorable non-polar contacts with lipid chains while their charged amine is interacting with fatty acid head groups. Such association with lipids can lead to cytotoxicity through membrane destabilization. Therefore, we evaluated a number of representative compounds against BJ cells, a normal human foreskin fibroblast cell line, where cytotoxicity was determined at 10 µM drug concentration, as described previously.
(§2) minimum locked at 0 and 100 respectively.
(§3) children with ALL in relapse.
(§4) foreskin fibroblast cell line (BJ).
(§5) Table 2. […] SSA: Sulindac sulfide
(In general: The purpose of a counterscreen is to sort out artefacts and off-target activity.)

The subject of series [4] is REH cells (precursor B-cell ALL). The experiment in a line: Additional cancer cell line panel, REH. The format is cell-based, human. The following applies: confidence intervals in parentheses, NA: not active, read-out: EC50 REH.
For series [5], the system named is MDA-MB-231 breast cancer cell line. The experiment in a line: qHTS cell viability screen (Cell Titer Glo), MDA-MB-231. The format is cell-based. Conditions: for CC50: MDA-MB-231 breast, 96 hours, cell viability Cell Titer Glo, read-out: CC50 MDA-MB-231.
Series [6] relates to NALM16 cell line (acute lymphoblastic leukemia). Description: Additional cancer cell line panel, NALM16. The format is cell-based, human. Conditions: confidence intervals in parentheses; NA: not active.
In series [7] the test system is HT29 colorectal carcinoma. Description: qHTS cell viability screen (Cell Titer Glo), HT29. The format is cell-based. Conditions: for CC50: Homo sapiens, HT-29, 72 h, HT29 colorectal carcinoma, 72 hours, cell viability Cell Titer Glo, read-out: CC50 HT29. In general terms: In qHTS, concentration-response curves come from the screen itself.
Series [8] has as its system Cell line 697 (ALL in relapse). The experiment in a line: Additional cancer cell line panel, 697. The format is cell-based, human. Conditions: confidence intervals in parentheses, NA: not active.
Excerpt: as §1, §2, §3, §4, §5

Series [9] relates to RAJI cells (Burkitt's leukaemia/lymphoma). The experiment in a line: Additional cancer cell line panel, RAJI. The format is cell-based. Conditions: confidence intervals in parentheses, NA: not active.
Series [10] can be described thus: BJ cell cytotoxicity counter screen. The following applies: human, BJ cells (normal human foreskin fibroblast cell line).
Excerpt: as §1, §2, §3, §4, §5

The test system of series [11] is COX-2. Set-up: method as in PMID 19470791. Conditions: cited from earlier work.
Series [12] concerns COX-1. Also on record: method as in PMID 19470791. Conditions: cited from earlier work.
[13] abbreviates: read-out: EC50 BJ (cytotoxicity), BJ normal human foreskin fibroblasts, confidence intervals in parentheses.

Regarding “3,4,5-trimethoxybenzylidene-3-indenylmethyl-2-phenylacetamide [Compound 26]”, the “increased anticancer activity in comparison with SSA, prostate cancer cells” value in [1] (versus SSA) is reported as 6-7 fold. Besides, the EC50 in series [2] is 11 µM; in series [3] (setting [13]), greater than 22.7 µM; in series [4], 19 µM; in series [6], 8.1 µM; in [8], 15 µM; in series [9] it was 8.3 µM. Also, the “increased anticancer activity in comparison with SSA, breast cancer cells” value in series [5] (versus SSA) was 27 fold. In addition, the “increased anticancer activity in comparison with SSA, colon cancer cells” value in series [7] (versus SSA) is 6-7 fold.

Turning to `CSc1ccc(/C=C2/C(C)=C(CNC(=O)[C@@H](N)C(C)C)c3cc(F)ccc32)cc1` [Compound 24], the melting point is 133 to 135 °C. In addition, the CC50 in [1] (72 h) is less than 10 µM. Also, the CC50 in series [1] is 5.16 ± 0.5 µM. In addition, in series [2] (Homo sapiens, Jurkat E6.1), the EC50 was determined as 15 µM. Further, the EC50 in [10] worked out at 16.7 µM. Moreover, in series [4] (Homo sapiens, REH), the EC50 worked out at 14 µM. Moreover, the CC50 in series [5] (Homo sapiens, MDA-MB-231, 96 h) was less than 10 µM. In [5], the CC50 is 6.81 ± 0.63 µM. Moreover, the EC50 in series [8] (Homo sapiens) was 16 µM. For the same compound, in [9] (Homo sapiens, Raji), the EC50 was 39 µM.

Turning to `COc1cc(/C=C2/C(C)=C(CNC(=O)[C@@H](N)C(C)C)c3cc(F)ccc32)cc(OC)c1OC` [Compound 32], the CC50 in [1] (72 h) was less than 10 µM; in [1], 8.11 ± 0.41 µM; in series [5] (Homo sapiens, MDA-MB-231, 96 h) it was less than 10 µM; in series [5] it was 7.3 ± 0.73 µM. Moreover, the EC50 in series [10] was greater than 22.7 µM; in series [4] (Homo sapiens, REH) it was 21 µM; in series [9] (Homo sapiens, Raji), 110 µM.

Compound `COc1cc(/C=C2/C(C)=C(CNC(=O)[C@@H]3CCCN3)c3cc(F)ccc32)cc(OC)c1OC` [Compound 33] displayed a melting point of 64 to 66 °C. Also, the CC50 in [1] (72 h) was 11.9 ± 1.56 µM. Also, the EC50 in series [2] (Homo sapiens, Jurkat E6.1) amounted to 33 µM. Also, the EC50 in [10] is greater than 22.7 µM. Further, the EC50 in series [4] (Homo sapiens, REH) worked out at 38 µM. In series [5] (Homo sapiens, MDA-MB-231, 96 h), the CC50 was determined as 8.2 ± 0.99 µM. Further, the CC50 in series [7] is 5.67 ± 1.67 µM.

For the compound `COc1cc(/C=C2/C(C)=C(CN(Cc3ccncc3)Cc3ccncc3)c3cc(F)ccc32)cc(OC)c1OC` [Compound 56], the CC50 in series [1] was found to be 9.09 ± 0.87 µM. Besides, the EC50 in [3] is greater than 22.7 µM; in series [4], 32 µM; in series [6] it was 32 µM; in series [9], 58 µM.

Turning to `CSc1ccc(/C=C2/C(C)=C(CC(=O)NCCN(C)C)c3cc(F)ccc32)cc1` [SSA, Sulindac sulfide amide, reference compound], the CC50 stood at 3.12 ± 0.15 µM in series [1] (72 h); 2.67 ± 0.08 µM in series [5] (Homo sapiens, MDA-MB-231, 96 h); 0.65 ± 0.03 µM in [7]. The “activity against COX-2” value in series [11] is recorded as “no activity”. Further, in series [3] (setting [13]), the EC50 is greater than 7.57 µM. Moreover, the “activity against COX-1” value in series [12] was “no activity”.

These data come from PMC5817852 (The Open Medicinal Chemistry Journal, 2018).
